Reference: patent publication US20080287445A1, “Prokineticin 2 receptor antagonists” (priority 2005, published 2008)
pIC50: −log10 of the molar value. Several values for one entry are separate records, joined by “and”; a condition that tells them apart may be missing. Identical values can stand only once.

Target: T1, GPR73 (prokineticin 1 receptor) (Homo sapiens, UniProt Q8TCW9)
T1 construct: expressed in transfected cells; host or cells: HEK 293
Assay: PK1 functional assay: Ca2+ mobilization screening for PK1 antagonists on the FLIPR
Assay type: cell-based
Conditions: HEK 293 GPR73 cells, multiple values = multiple testing; for inhibition at 10 µM: HEK293, 10 μM compound, read-out: Ca^2+ Mobilization % Inh @ 10 μM; for pIC50: PK1 ligand preparation at its EC50, read-out: Ca^2+ Mobilization IC50; for Ca^2+ Mobilization % Inh @ 10 μM: 10 μM compound
Procedure: At a time of 24 h prior to running the assay, in cell culture media (DMEM containing high Glucose and L-glutamine, 10% FBS, 1% Pen/Streptomycin, 1% Sodium Pyruvate, 20 mM HEPES, Zeocin 200 mg/L), 100 μL of 1.3*10^6/ml HEK 293 GPR73 (prokineticin 1 receptor) expressing cells were plated in a 96 well poly-d-lysine coated plate (Costar), and incubated at 37 C and 5% CO2. On the day in which the assay was run, the media was removed and 200 μL of 5× Calcium Plus Dye (Molecular Devices) which was previously resuspended with 200 mL of assay buffer [HBSS w/Ca^2+ and Mg^2+ w/o phenol red, 20 mM HEPES, 0.1% BSA, 10 mL probenecid (710 mg probenecid in 5 mL of 1N NaOH, to which was then added 5 mL HBSS containing 20 mM HEPES)] was added to each well of the 96-well plate. The plate was incubated at 37 C and 5% CO2 for 30 min in dark. The plate was removed and allowed to reach RT for 15 min in the dark. The assay was then run on the FLIPR. In Brief: base line read for 1 min, compound added (25 μL) and incubated for 4 min, 15 seconds, PK1 ligand preparation added (25 μL) for a final concentration of a previously determined EC50 and fluorescence was counted for 1 min, 45 seconds. Baseline is described as the amount of relative fluorescence read when buffer alone is added to cells. Baseline was subtracted from all wells. Percent of control was calculated as follows:
(Baseline subtracted well value is divided by baseline subtracted max value)*100. Percent inhibition is 100 minus the percent of control value.
The IC50 is defined as the amount of a given compound required to inhibit 50% of the maximum signal that is generated by the concentration of PK1 preparation used in our assay. IC50 values were calculated using GraphPad Prism.

T1 sequence (Q8TCW9 whole entry, species assumed): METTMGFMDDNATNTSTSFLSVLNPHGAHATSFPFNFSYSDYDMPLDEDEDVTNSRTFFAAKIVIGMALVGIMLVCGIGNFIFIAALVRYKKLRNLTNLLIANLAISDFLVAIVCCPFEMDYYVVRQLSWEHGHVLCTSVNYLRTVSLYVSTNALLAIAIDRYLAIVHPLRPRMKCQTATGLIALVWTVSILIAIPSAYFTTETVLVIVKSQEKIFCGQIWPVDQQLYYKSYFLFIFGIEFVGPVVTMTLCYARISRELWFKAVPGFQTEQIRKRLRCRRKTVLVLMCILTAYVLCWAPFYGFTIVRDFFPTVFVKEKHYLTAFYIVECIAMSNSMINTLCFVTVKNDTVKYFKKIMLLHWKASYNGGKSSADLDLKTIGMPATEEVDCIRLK

inhibition at 10 µM | pIC50 | Ca^2+ Mobilization % Inh @ 10 μM | SMILES
99% | 6.96 | – | COc1ccc(Cn2c(=O)nc(NCc3cnc(C)cc3C)n(Cc3cc4ccccc4o3)c2=O)cc1 [Cpd 102]
41% | < 5.00 | – | CCCCCCn1c(NCc2cnc(C)cc2C)nc(=O)n(Cc2ccc(OC)cc2)c1=O [Cpd 103]
96% | 6.71 | – | COc1ccc(Cn2c(=O)nc(NCc3cnc(C)cc3C)n(Cc3ccc(OC)nc3)c2=O)cc1 [Cpd 104]
85% | 6.36 | – | COc1ccc(Cn2c(=O)nc(NCc3cnc(C)cc3C)n(Cc3ccccc3OC(F)(F)F)c2=O)cc1 [Cpd 105]
89% | 6.06 | – | CCOc1ccc(Cn2c(=O)nc(NCc3cnc(C)cc3C)n(Cc3ccc(OC)cc3)c2=O)cc1 [Cpd 107]
42% | < 5.00 | – | COc1ccc(Cn2c(NCc3cnc(C)cc3C)nc(=O)n(Cc3ccc([N+](=O)[O-])cc3)c2=O)cc1 [Cpd 108]
89% | 6.17 | – | C=CCC(c1ccc(OC)cc1)n1c(=O)nc(NCc2cnc(C)cc2C)n(Cc2ccc(OC)cc2)c1=O (centres unmarked) [Cpd 109]
48% | 5.04 | – | COc1ccc(Cn2c(NCc3cnc(C)cc3C)nc(=O)n(Cc3ccc(C(F)(F)F)cc3)c2=O)cc1 [Cpd 110]
57% | 5.10 | – | COc1ccc(Cn2c(NCc3cnc(C)cc3C)nc(=O)n(Cc3cccc(OC)c3)c2=O)cc1 [Cpd 111]
74% | 5.59 | – | COc1ccc(Cn2c(NCc3cnc(C)cc3C)nc(=O)n(Cc3cccc(F)c3)c2=O)cc1 [Cpd 112]
48% | 5.20 | – | COC(=O)c1ccc(Cn2c(=O)nc(NCc3cnc(C)cc3C)n(Cc3ccc(OC)cc3)c2=O)cc1 [Cpd 114]
98% | 6.61 | – | COc1ccc(Cn2c(NCc3cccc(N)n3)nc(=O)n(Cc3ccc(OC)cc3)c2=O)cc1 [Cpd 115, 6-[(6-Amino-pyridin-2-ylmethyl)-amino]-1,3-bis-(4-methoxy-benzyl)-1H-[1,3,5]triazine-2,4-dione]
95% | 6.41 | – | COc1ccc(Cn2c(=O)nc(NCc3cnc(C)cc3C)n(Cc3ccc(F)cc3)c2=O)cc1 [Cpd 116]
97% | 6.66 | – | COc1ccc(Cn2c(=O)nc(NCc3cnc(C)cc3C)n(Cc3ccc(Cl)cc3)c2=O)cc1 [Cpd 117]
80% | 5.86 | – | COc1ccc(Cn2c(NCc3c[n+]([O-])c(C)cc3C)nc(=O)n(Cc3ccc(OC)cc3)c2=O)cc1 [Cpd 118]
40% | < 5.00 | – | COc1ccc(Cn2c(NCc3cccnc3N)nc(=O)n(CCc3c[nH]c4ccccc34)c2=O)cc1 [Cpd 119]
40% | < 5.00 | – | COc1ccc(Cn2c(NCc3cccnc3N)nc(=O)n(CC3COc4ccccc4O3)c2=O)cc1 (centres unmarked) [Cpd 120]
58% | 5.20 | – | COc1ccc(Cn2c(OCc3cccnc3)cc(=O)n(Cc3ccc(OC)cc3)c2=O)cc1 [Cpd 121, 1,3-Bis-(4-methoxy-benzyl)-6-(pyridin-3-ylmethoxy)-1H-pyrimidine-2,4-dione]
76% | 6.71 | – | COc1ccc(Cn2c(NCc3ccc(C(F)(F)F)nc3)nc(=O)n(Cc3ccc(OC)cc3)c2=O)cc1 [Cpd 122]
83% | 6.16 | – | COc1ccc(Cn2c(NCc3cnc(C)cc3C)nc(=O)n(Cc3ccc4c(c3)CCO4)c2=O)cc1 [Cpd 123, 3-(2,3-Dihydro-benzofuran-5-ylmethyl)-6-[(4,6-dimethyl-pyridin-3-ylmethyl)-amino]-1-(4-methoxy-benzyl)-1H-[1,3,5]triazine-2,4-dione]
61% | 6.09 | – | COc1ccc(Cn2c(NCc3cccnc3N)nc(=O)n(Cc3ccc(OC)c([N+](=O)[O-])c3)c2=O)cc1 [Cpd 124]
97% | 7.27 and 7.85 | 99% | COc1ccc(Cn2c(=O)nc(NCc3cccnc3N)n(Cc3ccc4c(c3)CCO4)c2=O)cc1 [Cpd 125]
89% | 6.63 | – | COc1ccc(Cn2c(=O)nc(NCc3cccnc3N)n(Cc3ccc4occc4c3)c2=O)cc1 [Cpd 126]
81% | 6.22 | – | COc1ccc(Cn2c(=O)nc(NCc3cccnc3N)n(Cc3ccc4[nH]ccc4c3)c2=O)cc1 [Cpd 127]

inhibition at 10 µM | pIC50 | Ca^2+ Mobilization % Inh @ 10 μM | SMILES
93% | 6.90 and 6.67 | 98% | COc1ccc(Cn2c(=O)nc(NCc3cnc(C)cc3C)n(Cc3ccc4c(c3)CCO4)c2=O)cc1 [Cpd 128]
88% | 6.92 | – | COc1ccc(Cn2c(=O)nc(NCc3cnc(C)cc3C)n(Cc3ccc4occc4c3)c2=O)cc1 [Cpd 129]
92% | 6.61 | – | COc1ccc(Cn2c(=O)nc(NCc3cnc(C)cc3C)n(Cc3ccc4[nH]ccc4c3)c2=O)cc1 [Cpd 130]
100% | 6.91 | – | COc1ccc(Cn2c(=O)nc(NCc3cccnc3N)n(Cc3ccc(S(C)(=O)=O)cc3)c2=O)cc1 [Cpd 131]
79% | 6.61 | – | COc1ccc(Cn2c(=O)nc(NCc3cnc(C)cc3C)n(Cc3ccc(S(C)(=O)=O)cc3)c2=O)cc1 [Cpd 132]
88% | 6.24 | – | COc1ccc(Cn2c(NCc3cnc(C)cc3C)nc(=O)n(Cc3ccc4occc4c3)c2=O)cc1 [Cpd 133]
86% | 6.65 | – | COc1ccc(Cn2c(NCc3cccnc3N)nc(=O)n(Cc3ccc4occc4c3)c2=O)cc1 [Cpd 134]
94% | 6.73 | – | COc1ccc(Cn2c(=O)nc(NCc3cccnc3N)n(Cc3ccc(OC(C)(C)C)cc3)c2=O)cc1 [Cpd 135]
92% | 7.82 and 7.47 | 102% | COc1ccc(Cn2c(=O)nc(NCc3cnc(C)cc3C)n(Cc3ccc(OC)c([N+](=O)[O-])c3)c2=O)cc1 [Cpd 136]
68% | 5.98 | – | COc1ccc(Cn2c(=O)nc(NCc3cccnc3N)n(Cc3ccc(OC)c([N+](=O)[O-])c3)c2=O)cc1 [Cpd 137]
61% | 5.82 and 5.57 | 73% | COc1ccc(Cn2c(=O)nc(NCc3cccnc3N)n(Cc3cccc4[nH]ccc34)c2=O)cc1 [Cpd 138]
92% | – | 97% and 100% | COc1ccc(Cn2c(=O)nc(NCc3cnc(C)cc3C)n(Cc3cccc4[nH]ccc34)c2=O)cc1 [Cpd 139]
91% | 6.72 | – | COc1ccc(Cn2c(=O)nc(NCc3cccnc3N)n(Cc3ccc4sccc4c3)c2=O)cc1 [Cpd 140]
82% | 5.95 | – | COc1ccc(Cn2c(NCc3cccnc3N)nc(=O)n(CCOc3ccc(F)cc3)c2=O)cc1 [Cpd 141, 6-[(2-Amino-pyridin-3-ylmethyl)-amino]-3-[2-(4-fluoro-phenoxy)-ethyl]-1-(4-methoxy-benzyl)-1H-[1,3,5]triazine-2,4-dione]
76% | 6.41 | – | COc1ccc(Cn2c(=O)nc(NCc3cnc(C)cc3C)n(Cc3ccc4sccc4c3)c2=O)cc1 [Cpd 142]
31% | < 5.00 | – | COc1ccc(Cn2c(NCc3cccnc3N)nc(=O)n(Cc3ccccc3OC)c2=O)cc1 [Cpd 143]
36% | < 5.00 | – | COc1ccc(Cn2c(NCc3cnc(C)cc3C)nc(=O)n(Cc3ccccc3OC)c2=O)cc1 [Cpd 144]
90% | 6.50 | – | COc1ccc(Cn2c(NCc3cccnc3N)nc(=O)n(Cc3ccc4sccc4c3)c2=O)cc1 [Cpd 145]
80% | 5.67 | – | COc1ccc(Cn2c(NCc3cnc(C)cc3C)nc(=O)n(Cc3ccc4sccc4c3)c2=O)cc1 [Cpd 146]
99% | 6.96 | – | CCCNc1cccc(CNc2nc(=O)n(Cc3ccc(OC)cc3)c(=O)n2Cc2ccc(OC)cc2)n1 [Cpd 147, 1,3-Bis-(4-methoxy-benzyl)-6-[(6-propylamino-pyridin-2-ylmethyl)-amino]-1H-[1,3,5]triazine-2,4-dione]
86% | 6.30 | – | COc1ccc(Cn2c(NCc3cccc(N)n3)cc(=O)n(Cc3ccc(OC)cc3)c2=O)cc1 [Cpd 148, 6-[(6-Amino-pyridin-2-ylmethyl)-amino]-1,3-bis-(4-methoxy-benzyl)-1H-pyrimidine-2,4-dione]
86% | 6.10 | – | COc1ccc(Cn2c(=O)nc(NCc3cccnc3N)n(CC3CCC(OC)CC3)c2=O)cc1 (centres unmarked) [Cpd 149]
78% | 6.23 | – | COc1ccc(Cn2c(=O)nc(NCc3cnc(C)cc3C)n(CC3CCC(OC)CC3)c2=O)cc1 (centres unmarked) [Cpd 150]
